# Target: T1, CXCR4 (Homo sapiens, UniProt P61073)
# T1 construct: endogenous in cells; host or cells: CEM-Nkr, CCRF-CEM (ATCC #CCL-119), Jurkat (ATCC #TIB-152), Molt-4 (ATCC# CRL-1582); IL-2 stimulated lymphocytes from human blood
# Experiment: Inhibition of SDF-1 ligand binding or chemotaxis assay for CXCR4
# Conditions: first (or only) activity listed in CXCR4/CXCR7; chemotaxis assay or binding assays
# Experimental: CEM-Nkr, CCRF-CEM (ATCC #CCL-119), Jurkat (ATCC #TIB-152), Molt-4 (ATCC# CRL-1 582), cell lines, all endogenously expressing CXCR4, were used in compound screening and subsequent assays. These cell lines were cultured as a suspension in RPMI-1640 medium supplemented with 2 mM L-glutamine, 1.5 g/L sodium bicarbonate, 4.5 g/L glucose, 10 mM HEPES, 1 mM sodium pyruvate, and 10% FBS. Cells were grown under 5% CO2/95% air, 100% humidity at 37° C. and subcultured twice weekly at 1:6 (cells were cultured at a density range of 1×10^5 to 2×10^6 cells/mL) and harvested at 1×10^6 cells/mL.
# Il-2 stimulated lymphocytes were isolated from fresh human blood using density separation and centrifigation. Briefly, whole blood is incubated with equal parts 3% dextran and allowed to separate for 45 minutes. After separation, the top layer is then layered on top of 15 mls of Ficoll (15 mls of Ficoll for every 30 mls of blood suspension) and centrifuged for 30 minutes at 400×g with no brake. The pellet at the bottom of the tube is then isolated and resuspended into PharmLyse RBC Lysis Buffer (BD Biosciences, San Jose, Calif.) after which the sample is again centrifuged for 10 minutes at 400×g with brake. The remaining cell pellet is resuspended as appropriate and stimulated with PHA for 2 days, followed by culturing in the presence of human IL-2 cytokine.
# Cells were centrifuged and resuspended in assay buffer (20 mM HEPES pH 7.1, 140 mM NaCl, 1 mM CaCl2, 5 mM MgCl2, and with 0.2% bovine serum albumin) to a concentration of 4×10^6 cells/mL for cell lines. Binding assays were set up as follows. 0.15 mL of cells (6×10^5 cells/well) was added to the assay plates containing the compounds, giving a final concentration of ˜2-10 μM each compound for screening (or part of a dose response for compound IC50 determinations). Then 0.1 mL of ^125I labeled SDF-1α (obtained from Perkin Elmer Life Sciences, Boston, Mass.) diluted in assay buffer to a final concentration of ˜[…], yielding ˜30,000 cpm per well, was added, the plates sealed and incubated for approximately 3 hours at 4° C. on a shaker platform. Reactions were aspirated onto GF/B glass filters pre-soaked in 0.3% polyethyleneimine (PEI) solution, on a vacuum cell harvester (Packard Instruments; Meriden, Conn.). Scintillation fluid (40 μl; Microscint 20, Packard Instruments) was added to each well, the plates were sealed and radioactivity measured in a Topcount scintillation counter (Packard Instruments). Control wells containing either diluent only (for total counts) or excess SDF1a (1 μg/mL, for non-specific binding) were used to calculate the percent of total inhibition for compound. The computer program Prism from Graph Pad, Inc. (San Diego, Calif.) was used to calculate IC50 values. IC50 values are those concentrations required to reduce the binding of radiolabeled SDF-1α to the receptor by 50%. (For further descriptions of ligand binding and other functional assays, see Dairaghi, et al., J. Biol. Chem. 274:21569-21574 (1999), Penfold, et al., Proc. Natl. Acad. Sci. USA. 96:9839-9844 (1999), and Dairaghi, et al,. J. Biol. Chem. 272:28206-28209 (1997)).
# Chemotaxis assays were performed using 5 μm pore polycarbonate, polyvinylpyrrolidone-coated filters in 96-well chemotaxis chambers (Neuroprobe; Gaithersburg, Md.) using chemotaxis buffer (Hank's balanced salt solution (HBSS) and 1% FBS). CXCR4 ligand (i.e., SDF1a, R&D Systems; Minneapolis, Minn.) are use to evaluate compound mediated inhibition of CXCR4 mediated migration. Other chemokines (i.e., TECK; R&D Systems; Minneapolis, Minn.) are used as specificity controls. The lower chamber was loaded with 29 μl of chemokine (i.e., 0.1 nM SDF1a); the top chamber contained 50,000 Jurkat cells or IL-2 lymphocytes in 20 μl. […]
# T1 sequence (P61073 whole entry): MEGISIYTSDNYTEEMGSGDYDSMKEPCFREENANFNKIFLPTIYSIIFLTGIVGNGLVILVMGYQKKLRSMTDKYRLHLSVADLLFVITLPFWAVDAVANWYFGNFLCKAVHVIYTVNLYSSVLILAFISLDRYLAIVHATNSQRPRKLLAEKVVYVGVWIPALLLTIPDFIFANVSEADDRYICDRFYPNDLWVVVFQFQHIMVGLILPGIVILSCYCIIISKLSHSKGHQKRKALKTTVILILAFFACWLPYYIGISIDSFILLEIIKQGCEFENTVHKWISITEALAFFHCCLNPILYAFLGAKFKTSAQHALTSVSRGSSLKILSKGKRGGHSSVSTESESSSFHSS
row,Compound,IC50
1,Cc1ccc2oc(=O)c3cnn(CC(=O)NCCN(C)C4CCCCC4)c3c2c1 [Compound 1],1000 to 10000 nM
2,Cc1ccc2c(c1)-c1nn(CC(=O)NCCN(C)C3CCCCC3)cc1CO2 [Compound 3],1000 to 10000 nM
3,Cc1ccc2c(c1)-c1c(cnn1CC(=O)N1CCN(C3CCCCCC3)CC1)CO2 [Compound 5],1000 to 10000 nM
4,CN(CCNC(=O)Cn1ncc2[nH]c(=O)c3ccccc3c21)C1CCCCC1 [Compound 10],> 10000 nM
5,COc1ccc2c(c1)c1c(cnn1CC(=O)NCCN1CCCC3CCCCC31)c(=O)n2C (stereo not drawn) [Compound 13],< 1000 nM
6,CN(CCCNC(=O)Cn1ncc2cc3ccccc3nc21)C1CCCCC1 [Compound 14],1000 to 10000 nM
7,COc1ccc2c(c1)c1c(cnn1CC(=O)NCCN1CCC3CCCCC3C1)c(=O)n2C (stereo not drawn) [Compound 16],< 1000 nM
8,COc1ccc2c(c1)c1c(cnn1CC(=O)NCC1CCCN(C3CCCCC3)C1)c(=O)n2C (stereo not drawn) [Compound 17],> 10000 nM
9,COc1ccc2c(c1)c1c(cnn1CC(=O)NCCN(C)C1CCOCC1)c(=O)n2C [Compound 18],> 10000 nM
10,CN(CCNC(=O)Cn1ncc2c(=O)oc3ccccc3c21)C1CCCCC1 [Compound 21],> 10000 nM
11,CN(CCNC(=O)Cn1ncc2c(=O)oc3ccc(Cl)cc3c21)C1CCCCC1 [Compound 22],1000 to 10000 nM
12,COc1ccc2c(c1)-c1c(cnn1C(=O)NCCN1CCC[C@@H]3CCCC[C@@H]31)CO2 [Compound 27],1000 to 10000 nM
13,COc1ccc2c(c1)c1c(cnn1C(=O)NCCN1CCC[C@@H]3CCCC[C@H]31)c(=O)n2C [Compound 28],< 1000 nM
14,COc1ccc2c(c1)c1c(cnn1CC(=O)NCCN1CC[C@@H]3CCCC[C@H]3C1)c(=O)n2C [Compound 34],< 1000 nM
15,COc1ccc2c(c1)c1c(cnn1C(C)C(=O)NCCCN(C)C1CCCCC1)c(=O)n2C (stereo not drawn) [Compound 38],1000 to 10000 nM
16,COc1ccc2c(c1)c1c(cnn1CC(=O)NCCN1CCCC(C)C1)c(=O)n2C (stereo not drawn) [Compound 40],1000 to 10000 nM

# Second part, the compound after the results:
row,IC50,Compound
1,1000 to 10000 nM,Cc1ccc2c(c1)-c1c(cnn1CC(=O)NCCN(C)C1CCCCC1)CO2 [Compound 2]
2,> 10000 nM,CN(CCNC(=O)Cn1ncc2c1-c1cc(Cl)ccc1OC2)C1CCCCC1 [Compound 4]
3,1000 to 10000 nM,CN(CCNC(=O)Cn1ncc2c1-c1ccccc1CC2)C1CCCCC1 [Compound 6]
4,1000 to 10000 nM,COc1ccc2c(c1)-c1c(cnn1CC(=O)NCCN(C1CCCCC1)C1CCCCC1)CO2 [Compound 7]
5,1000 to 10000 nM,Cc1ccc2c(c1)c1c(cnn1CC(=O)NCCN(C)C1CCCCC1)c(=O)n2C [Compound 8]
6,< 1000 nM,COc1ccc2nc(OC)c3cnn(CC(=O)NCCN(C)C4CCCCC4)c3c2c1 [Compound 9]
7,1000 to 10000 nM,COc1nc2cnn(CC(=O)NCCN(C)C3CCCCC3)c2c2ccccc12 [Compound 11]
8,1000 to 10000 nM,COc1ccc2c(c1)c1c(cnn1CC(=O)NCCN(C)C1CCCCC1)c(=O)n2CC(=O)OC(C)(C)C [Compound 12]
9,1000 to 10000 nM,COc1ccc2c(c1)c1c(cnn1C(C)C(=O)NCCN(C)C1CCCCC1)c(=O)n2C (stereo not drawn) [Compound 15]
10,< 1000 nM,CN(CCNC(=O)Cn1ncc2c1-c1ccc(C#N)cc1OC2)C1CCCCC1 [Compound 19]
11,1000 to 10000 nM,COc1ccc2c(c1)-c1c(cnn1CC(=O)NCCN(C)C1CCCC1)CO2 [Compound 20]
12,> 10000 nM,Cc1cc2c(cc1Cl)-c1c(cnn1CC(=O)NCCN(C)C1CCCCC1)CO2 [Compound 23]
13,1000 to 10000 nM,COc1ccc2c(c1)-c1c(cnn1CC(=O)NCCN(C)C1CCCCCCC1)CO2 [Compound 25]
14,> 10000 nM,COc1ccc2c(c1)-c1c(cnn1CC(=O)NCCN(C)C1CCCCCC1)CO2 [Compound 26]
15,1000 to 10000 nM,CCN(CCNC(=O)Cn1ncc2c(=O)n(C)c3ccc(OC)cc3c21)C1CCCCC1 [Compound 29]
16,< 1000 nM,CCn1c(=O)c2cnn(CC(=O)NCCN(C)C3CCCCC3)c2c2cc(OC)ccc21 [Compound 33]
17,< 1000 nM,COc1ccc2c(c1)c1c(cnn1CC(=O)NCCCN(C)C1CCCCC1)c(=O)n2C [Compound 35]
18,1000 to 10000 nM,COc1nc2ccc(C)cc2c2c1cnn2CC(=O)NCCN(C)C1CCCCC1 [Compound 36]
19,< 1000 nM,CCN(CCCNC(=O)Cn1ncc2c(=O)n(C)c3ccc(OC)cc3c21)C1CCCCC1 [Compound 37]
20,1000 to 10000 nM,COc1ccc2c(c1)-c1c(cnn1CC(=O)NCCN(C)C1CCCCC1)C(OCC(=O)OC(C)(C)C)N2 (stereo not drawn) [Compound 39]

# Target: T2, CCXCKR2 (CXCR7) (Homo sapiens, UniProt P25106)
# T2 construct: expressed in transfected cells; host or cells: MDA-MB-435S transfected with pcDNA3.1(+)-hRDC1 (G418 selected) and/or MCF-7 (endogenous receptor)
# T2 sequence (P25106 whole entry): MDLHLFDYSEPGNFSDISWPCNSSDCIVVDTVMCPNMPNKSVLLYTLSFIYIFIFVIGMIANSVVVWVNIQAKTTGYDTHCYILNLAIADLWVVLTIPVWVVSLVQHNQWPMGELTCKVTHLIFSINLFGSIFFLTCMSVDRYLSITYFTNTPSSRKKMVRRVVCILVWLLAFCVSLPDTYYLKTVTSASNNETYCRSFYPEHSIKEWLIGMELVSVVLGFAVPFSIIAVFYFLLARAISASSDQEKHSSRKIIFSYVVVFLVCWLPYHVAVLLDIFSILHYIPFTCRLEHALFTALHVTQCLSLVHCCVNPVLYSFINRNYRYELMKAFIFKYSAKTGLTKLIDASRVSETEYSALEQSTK
# Experiment: Displacement of 125I SDF-1 from CCXCKR2 (CXCR7) on MCF-7 and/or MDA-MB-435S cells
# Assay type: binding
# Conditions: second activity CXCR4/CXCR7
# Experimental: The ability of the compounds to displace the labeled chemokine from the CCXCKR2 receptor sites at multiple concentrations was then determined with the screening process.
# Reagents and Cells. […] SDF-1 was purchased from Perkin-Elmer Life Sciences, Inc. (Boston, Mass.). The MCF-7 (adenocarcinoma; mammary gland) cell line was obtained from the American Type Culture Collection (Manassas, Va.) or and was cultured in DMEM (Mediatech, Herudon, Va.) supplemented with 10% fetal bovine serum (FBS) (HyClone Logan, Utah) and bovine insulin (0.01 mg/mL) (Sigma, St. Louis, Mo.) at 37° C. in a humidified incubator at a 5% CO2/air mixture. CCXCKR2 transfected MDA-MB-435S were produced as described below. MDA-MB-435S human breast cancer line, was purchased from ATCC, and cultured in DMEM/10% FBS medium. The complete coding sequence of the gene encoding CCXCKR2 (a.k.a.CXCR7, hRDC1), was isolated from MCF-7 cells using μMACs mRNA isolation kit (Miltenyi Biotec, Auburn, Calif.). DNA contamination was removed by DNase digestion via RNeasy columns (Qiagen, Inc., Valencia, Calif.) and cDNA was generated using GeneAmp RNA PCR Core Kit (Applied Biosystems, Foster City, Clif.). PCR of cDNA samples was performed using Taq PCR Master Mix kit (Qiagen, Inc.) and hRDC1 primers harboring 5′ and 3′ Not I sites (hRDC1F 5′ […]-3′ (SEO ID NO:11), hRDC1R 5′-[…]-3′ (SEO ID NO: 12)) Not I digested PCR product was ligated into Not I digested pcDNA3.1 (+)(Invitrogen, Carlsbad, Calif.) and screened for orientation and sequence confirmed. Plasmid DNA was then isolated from overnight bacterial cultures by Maxiprep (Qiagen, Inc.). Plasmid DNA (10μg) was added to MDA-MB-435s cells and cells were electroporated (0.22 kV, 960uF) via Gene Pulser (Biorad laboratories, Hercules, Calif.). 48 hr post-electroporation, cells were transferred to selection medium (1000 ug/ml G418).
# Binding Analysis. Target compounds were tested to determine their ability to bind with CCXCKR2 sites on MCF-7 and/or MDA-MB-435S cells. Efficiency-maximized radioligand binding using filtration protocols as described in Dairaghi D J, et al., HHV8-encoded vMIP-I selectively engages chemokine receptor CCR5. Agonist and antagonist profiles of viral chemokines, J. Biol. Chem. Jul. 30, 1999; 274(31): 21569-74 and Gosling J, et al., Cutting edge: identification of a novel chemokine receptor that binds dendritic cell-i and T cell-active chemokines including ELC, SLC, and TECK., J. Immunol. Mar. 15, 2000; 164(6):2851-6 was used.
# In these assays, MCF-7 and/or MDA-MB-435S cells were interrogated with the target compounds and the ability of these compounds to displace ^125I radiolabeled SDF-1 was assessed using the protocol described in Dairaghi and Gosling. The target compounds were added to the plate to the indicated concentration and were then incubated with cells followed by the addition of radiolabeled chemokine (^125I SDF-1) for 3 hr at 4° C. in the following binding medium (25 mM HEPES, 140 mM NaCl, 1 mM CaCl2, 5 mM MgCl2 and 0.2% bovine serum albumin, adjusted to pH 7.1). All assays were then incubated for 3 hrs at 4° C. with gentle agitation. Following incubation in all binding assays, reactions were aspirated onto PEI-treated GF/B glass filters (Packard) using a cell harvester (Packard) and washed twice (25 mM HEPES, 500 mM NaCl, 1 mM CaCl2, 5 mM MgCl2, adjusted to pH 7.1). Scintillant (MicroScint 10, Packard) was added to the wells, and the filters were counted in a Packard Topcount scintillation counter. Data were analyzed and plotted using Prism (GraphPad Prism version 3.0a for Macintosh, GraphPad Software, www.graphpad.com).
row,Compound,IC50
1,Cc1ccc2oc(=O)c3cnn(CC(=O)NCCN(C)C4CCCCC4)c3c2c1 [Compound 1],< 1000 nM
2,Cc1ccc2c(c1)-c1c(cnn1CC(=O)NCCN(C)C1CCCCC1)CO2 [Compound 2],< 1000 nM
3,COc1ccc2c(c1)c1c(cnn1CC(=O)NCCN1CCCC3CCCCC31)c(=O)n2C (stereo not drawn) [Compound 13],< 1000 nM

# Reference: US7671069B2, “Tricyclic, heteroaromatic compounds modulating CXCR4 and/ or CXCR7” (ChemoCentryx, Inc., priority 2006, dated 2010)
